Molecules are shown by their SMILES.

The values that follow come from patent publication US20100022559A1, “BISOXIMES AS FUNGICIDES” (BAYER CROPSCIENCE AG, priority 2006, published 2010).

A short description of the first series: logP determination by HPLC on a reversed-phase column (C 18), EEC Directive 79/831 Annex V.A8. The series is classed as physicochemical. As to conditions: method marked [a] in Table 1. The protocol:
The stated logP values were determined in accordance with EEC Directive 79/831 Annex V.A8 by HPLC (high performance liquid chromatography) on a reversed-phase column (C 18). Temperature: 43° C.
Turning to `CCOc1cc(C)nc(C(C)=NOCC(C)CON=C(C)c2cc(OCC)cc(C)n2)c1` (stereo not shown) [Compound 683], the logP was 1.71^[a].

Still in this series, the particulars now being: method marked [b] in Table 1.
For `CC#Cc1cccc(C(C)=NOCC(C)CON=C(C)c2cccc(C#CC)n2)n1` (stereo not shown) [Compound 686], the logP is 5.65^[b].

As for `CC(=NOCC(C)CON=C(C)c1cccc(C(=O)c2ccccc2)n1)c1cccc(C)n1` (stereo not shown) [Compound 690], the logP is 5.75^[b].

Consider `CC(=NOCC1(CON=C(C)c2ccc(C)c(C)n2)CC1)c1cc(C)cc(C)n1` [Compound 695], for which the logP is 2.61^[b].

`CC(=NOCC(C)(C)CON=C(C)c1ccc(C)c(C)n1)c1cc(C)cc(C)n1` [Compound 697]: the logP was 3.15^[b].

With `CC(=NOCC(C)(C)CON=C(C)c1ccc(C)o1)c1ccc(C)o1` [Compound 698], the logP is 5.00^[b].

With `CC(=NOCCCON=C(C)c1ccc(C)c(C)n1)c1cccc(C)n1` [Compound 699], the logP was 2.53^[b].

As for `CC(=NOCC#CCON=C(C)c1cccc(C)n1)c1cccc(C)n1` [Compound 706], the logP was 3.12^[b].

`CC(=NOCc1ccccc1CON=C(C)c1ccccn1)c1ccccn1` [Compound 725]: the logP was 3.76^[b].

For the compound `CC(=NOCc1cccc(CON=C(C)c2cccc(C)n2)n1)c1cccc(C)n1` [Compound 740], the logP was 2.49^[b].

The same series, now with this note: method marked [c] in Table 1.
Turning to `CC(=NOCC1(CON=C(C)c2ccc(C)c(C)n2)CC1)c1cc(C)cc(C)n1` [Compound 695], the logP is 6.02^[c].

As to `CC(=NOCC(C)(C)CON=C(C)c1ccc(C)c(C)n1)c1cc(C)cc(C)n1` [Compound 697], the logP was 6.70^[c].

For the compound `CC(=NOCCCON=C(C)c1ccc(C)c(C)n1)c1cccc(C)n1` [Compound 699], the logP is 5.33^[c].

In the case of `CC(=NOCc1cccc(CON=C(C)c2cccc(C)n2)n1)c1cccc(C)n1` [Compound 740], the logP is 4.33^[c].

Staying with this series, now noted: value marked [a].
As to `CC[Si](CC)(CON=C(C)c1cccc(C)n1)CON=C(C)c1cccc(C)n1` [Compound 782], the logP is 6.65^[a].

In the case of `CC(=NOCC(C)CON=C(C)c1cccc(N2CCCC2)n1)c1cccc(N2CCCC2)n1` (stereo not shown) [Compound 783], the logP is 2.51^[a].

Take `C=C(CON=C(C#N)c1cccc(C)n1)CON=C(C#N)c1cccc(C)n1` [Compound 784]: the logP was 3.84^[a].

Consider `CC[Si](C)(CON=C(C)c1cccc(C)n1)CON=C(C)c1cccc(C)n1` [Compound 785], for which the logP was 5.98^[a].

With `CC(=NOCC1(CON=C(C)c2ccc(C)c(C)n2)CC1)c1cccc(C)n1` [Compound 786], the logP was 3.99^[a].

Consider `CC[Si](CC)(CON=C(C)c1cc(C)cc(C)n1)CON=C(C)c1cc(C)cc(C)n1` [Compound 787], for which the logP was 5.05^[a].

Take `CC(=NOCC(C)CON=C(C)c1cccc(NCC2CC2)n1)c1cccc(NCC2CC2)n1` (stereo not shown) [Compound 791]: the logP was 1.95^[a].

Consider `CC(=NOCC(C)(C)CON=C(C)c1cccc(Cc2ccccc2)n1)c1cccc(Cc2ccccc2)n1` [Compound 798], for which the logP is 7.36^[b][a].

As for `CC(=NOCC(C)(C)CON=C(C)c1ccc(C)c(C)n1)c1cccc(C)n1` [Compound 799], the logP is 4.96^[a].

On to `CC(=NOCC(C)CON=C(C)c1cccc(C#N)n1)c1cccc(C#N)n1` (stereo not shown) [Compound 800], for which the logP is 4.78^[a].

`COc1cc(C)nc(C(C)=NOCC(C)CON=C(C)c2cc(OC)cc(C)n2)c1` (stereo not shown) [Compound 806]: the logP was 1.31^[a].

With `C=C(CON=C(C)c1cccc(C)n1)CON=C(Cl)c1ccc(C)c(C)n1` [Compound 807], the logP was 3.8^[a].

For `COc1cc(C)nc(C(C)=NOCC2(CON=C(C)c3cc(OC)cc(C)n3)CC2)c1` [Compound 816], the logP is 1.34^[a].

In the case of `CC(=NOCC(C)(C)CON=C(C)c1cc(C2CC2)cc(C)n1)c1cc(C2CC2)cc(C)n1` [Compound 817], the logP was 3.27^[a].

For the compound `CC(=NOCC(C)(C)CON=C(C)c1cc(C2CC2)cc(C)n1)c1cccc(C)n1` [Compound 818], the logP is 3.80^[a].

For `CCSC(=NOCC(C)CON=C(SCC)c1cccc(C)n1)c1cccc(C)n1` (stereo not shown) [Compound 820], the logP was 4.35^[a].

In the case of `C=C(CON=C(C)c1cccc(C)n1)CON=C(C#N)c1ccc(C)c(C)n1` [Compound 821], the logP was 3.74^[a].

Take `CC(=NOCC1CCCCC1ON=C(C)c1cccc(C)n1)c1cccc(C)n1` (stereo not shown) [Compound 823]: the logP was 5.9^[a].

Turning to `Cc1cccc(C(Cl)=NOCC(C)CON=C(Cl)c2cccc(C)n2)n1` (stereo not shown) [Compound 824], the logP is 4.58^[a].

As for `CC(=NOC[Si](C)(CON=C(C)c1cccc(C)n1)C(C)C)c1cccc(C)n1` [Compound 834], the logP is 6.72^[a].

Take `COC(=NOCC(C)CON=C(OC)c1cccc(C)n1)c1cccc(C)n1` (stereo not shown) [Compound 835]: the logP was 1.95^[a].

On to `CC(=NOC[Si](C)(CON=C(C)c1cc(C)cc(C)n1)C(C)C)c1cc(C)cc(C)n1` [Compound 836], for which the logP was 5.04^[a].

The same series, now with this note: value marked [b].
Take `Cc1cc(C)nc(C(N)=NOC/C=C/CON=C(N)c2nc(C)cc(C)n2)n1` [Compound 772]: the logP is 1.62^[b].

For `CC(=NOC/C=C/CON=C(C)c1cccc(C)n1)c1cccc(C)n1` [Compound 777], the logP is 2.89^[b].

`CC[Si](CC)(CON=C(C)c1cccc(C)n1)CON=C(C)c1cccc(C)n1` [Compound 782]: the logP is 6.65^[b].

Turning to `CC[Si](C)(CON=C(C)c1cccc(C)n1)CON=C(C)c1cccc(C)n1` [Compound 785], the logP was 5.98^[b].

On to `CC(=NOCC1(CON=C(C)c2ccc(C)c(C)n2)CC1)c1cccc(C)n1` [Compound 786], for which the logP is 3.99^[b].

For `CC[Si](CC)(CON=C(C)c1cc(C)cc(C)n1)CON=C(C)c1cc(C)cc(C)n1` [Compound 787], the logP is 5.05^[b].

As to `CCC(C)(CON=C(C)c1cccc(C)n1)CON=C(C)c1cccc(C)n1` (stereo not shown) [Compound 788], the logP is 5.73^[b].

Consider `CCC(C)(CON=C(C)c1ccc(C)c(C)n1)CON=C(C)c1ccc(C)c(C)n1` (stereo not shown) [Compound 793], for which the logP was 5.39^[b].

In the case of `CCC(C)(CON=C(C)c1cc(C)cc(C)n1)CON=C(C)c1cc(C)cc(C)n1` (stereo not shown) [Compound 794], the logP was 3.91^[b].

Regarding `CC(=NOCC(C)(C)CON=C(C)c1cccc(Cc2ccccc2)n1)c1cccc(Cc2ccccc2)n1` [Compound 798], the logP is 7.36^[b].

With `CC(=NOCC(C)(C)CON=C(C)c1ccc(C)c(C)n1)c1cccc(C)n1` [Compound 799], the logP is 4.96^[b].

`CCC(CC)(CON=C(C)c1cccc(C)n1)CON=C(C)c1cccc(C)n1` [Compound 809]: the logP was 6.68^[b].

For the compound `CCC(CC)(CON=C(C)c1ccc(C)c(C)n1)CON=C(C)c1ccc(C)c(C)n1` [Compound 810], the logP was 6.50^[b].

For the compound `CCC(CC)(CON=C(C)c1cc(C)cc(C)n1)CON=C(C)c1cc(C)cc(C)n1` [Compound 811], the logP was 4.79^[b].

For the compound `COc1ccc(C(C)=NOCC(C)CON=C(C)c2ccc(OC)c(C)n2)nc1C` (stereo not shown) [Compound 825], the logP is 5.21^[b].

As for `CC(=NOCC(C)CON=C(C)c1cccc([Si](C)(C)C)n1)c1ccccn1` (stereo not shown) [Compound 826], the logP is 6.72^[b].

Take `CC(=NOC[Si](C)(CON=C(C)c1cccc(C)n1)C(C)C)c1cccc(C)n1` [Compound 834]: the logP is 6.72^[b].

In the case of `CC(=NOC[Si](C)(CON=C(C)c1cc(C)cc(C)n1)C(C)C)c1cc(C)cc(C)n1` [Compound 836], the logP was 5.04^[b].

Staying with this series, now noted: value marked [c].
As for `CC[Si](CC)(CON=C(C)c1cccc(C)n1)CON=C(C)c1cccc(C)n1` [Compound 782], the logP was 7.01^[c].

Consider `CC[Si](C)(CON=C(C)c1cccc(C)n1)CON=C(C)c1cccc(C)n1` [Compound 785], for which the logP was 6.52^[c].

On to `CC(=NOCC1(CON=C(C)c2ccc(C)c(C)n2)CC1)c1cccc(C)n1` [Compound 786], for which the logP was 5.70^[c].

Turning to `CC[Si](CC)(CON=C(C)c1cc(C)cc(C)n1)CON=C(C)c1cc(C)cc(C)n1` [Compound 787], the logP is 7.36^[c].

On to `CCC(C)(CON=C(C)c1cccc(C)n1)CON=C(C)c1cccc(C)n1` (stereo not shown) [Compound 788], for which the logP was 6.47^[c].

Turning to `CCC(C)(CON=C(C)c1ccc(C)c(C)n1)CON=C(C)c1ccc(C)c(C)n1` (stereo not shown) [Compound 793], the logP was 7.27^[c].

On to `CCC(C)(CON=C(C)c1cc(C)cc(C)n1)CON=C(C)c1cc(C)cc(C)n1` (stereo not shown) [Compound 794], for which the logP was 7.18^[c].

Consider `CC(=NOCC(C)(C)CON=C(C)c1ccc(C)c(C)n1)c1cccc(C)n1` [Compound 799], for which the logP is 6.34^[c].

As for `COc1cc(C)nc(C(C)=NOCC(C)CON=C(C)c2cc(OC)cc(C)n2)c1` (stereo not shown) [Compound 806], the logP was 5.25^[c].

On to `CCC(CC)(CON=C(C)c1cccc(C)n1)CON=C(C)c1cccc(C)n1` [Compound 809], for which the logP is 6.97^[c].

For the compound `CCC(CC)(CON=C(C)c1ccc(C)c(C)n1)CON=C(C)c1ccc(C)c(C)n1` [Compound 810], the logP is 7.36^[c].

Regarding `CCC(CC)(CON=C(C)c1cc(C)cc(C)n1)CON=C(C)c1cc(C)cc(C)n1` [Compound 811], the logP is 7.36^[c].

Turning to `COc1cc(C)nc(C(C)=NOCC2(CON=C(C)c3cc(OC)cc(C)n3)CC2)c1` [Compound 816], the logP is 4.94^[c].

In the case of `CC(=NOCC(C)(C)CON=C(C)c1cc(C2CC2)cc(C)n1)c1cc(C2CC2)cc(C)n1` [Compound 817], the logP is 7.14^[c].

`CC(=NOCC(C)(C)CON=C(C)c1cc(C2CC2)cc(C)n1)c1cccc(C)n1` [Compound 818]: the logP is 6.57^[c].

Consider `COc1ccc(C(C)=NOCC(C)CON=C(C)c2ccc(OC)c(C)n2)nc1C` (stereo not shown) [Compound 825], for which the logP is 5.58^[c].

With `CC(=NOCC(C)CON=C(C)c1cccc([Si](C)(C)C)n1)c1ccccn1` (stereo not shown) [Compound 826], the logP is 7.29^[c].

On to `CC(=NOC[Si](C)(CON=C(C)c1cccc(C)n1)C(C)C)c1cccc(C)n1` [Compound 834], for which the logP was 7.35^[c].

With `CC(=NOC[Si](C)(CON=C(C)c1cc(C)cc(C)n1)C(C)C)c1cc(C)cc(C)n1` [Compound 836], the logP is 7.36^[c].
